From US20240199647A1, “ANTI-VIRAL COMPOUNDS” (Aligos Therapeutics, Inc., priority 2022, published 2024)
Where two headings read alike, the source gives them in different places.

Columns and labels:
in vitro = conditions: human
[1] = Cytotoxicity in HeLa cells without addition of OC43 virus (in parallel); conditions: human, HeLa cells, without OC43 virus
[2] = tested on: SARS-CoV-2 B.1.1.7 lineage; test: microbe, parasite or virus in culture; format: cell-based; conditions: Severe acute respiratory syndrome coronavirus 2, Table C, SARS-CoV-2 B.1.1.7 in A549-dual_ACE2_TMPRSS2 cells, read-out: A549-dual_ACE2_TMPRSS2 (EC50)
SARS-Cov-2 3CLpro = SARS-Cov-2 3CLpro (Severe acute respiratory syndrome coronavirus 2, UniProt P0DTD1); test: biochemical; conditions: Table A, read-out: SARS-Cov-2 (IC50)
[3] = tested on: human beta-coronavirus OC43; test: OC43 Coronavirus Assay in HeLa cells (antiviral, cytopathic effect, cell-titer-glo); format: cell-based; conditions: Betacoronavirus 1, OC43, HeLa, Table B, OC43 coronavirus in HeLa cells, read-out: EC50

## CC(C)C[C@H](NC(=O)C(F)(F)F)C(=O)N(C)[C@@H](CC(C)C)C(=O)N1C[C@@]2(C[C@H]1C#N)Oc1cc(F)cc(F)c1NC2=O [Compound 63]
In vitro
  CC50: > 1 µM
[1]
  CC50 at 6 days: > 10 µM
[2]; class symbols
  EC50: 0.1 to 1 µM
SARS-Cov-2 3CLpro; class symbols
  IC50: < 0.02 µM
[3]; class symbols
  EC50: 0.1 to 1 µM

## N#C[C@@H]1C[C@]2(CN1C(=O)[C@H](CC1CC1)NC(=O)[C@H](CC1CC1)NC(=O)C(F)(F)F)Oc1cc(F)cc(F)c1NC2=O [Compound 78]
In vitro
  CC50: > 1 µM
[1]
  CC50 at 6 days: > 10 µM
[2]; class symbols
  EC50: 0.1 to 1 µM
[3]; class symbols
  EC50: 0.1 to 1 µM

## CN(C(=O)[C@H](CC1CC1)NC(=O)C(F)(F)F)[C@@H](CC1CC1)C(=O)N1C[C@@]2(C[C@H]1C#N)Oc1ncccc1NC2=O [Compound 91]
[1]
  CC50 at 6 days: > 10 µM
SARS-Cov-2 3CLpro; class symbols
  IC50: < 0.02 µM
[3]; class symbols
  EC50: < 0.1 µM

## CC(C)C[C@@H](C(=O)N1C[C@]2(C[C@H]1C#N)C(=O)Nc1ccccc1C2(C)O)N(C)C(=O)[C@H](C)NC(=O)C(F)(F)F (some centres unmarked) [Compound 80]
[1]
  CC50 at 6 days: > 10 µM
SARS-Cov-2 3CLpro; class symbols
  IC50: 0.2 to 2 µM
[3]; class symbols
  EC50: < 0.1 µM

## CN(C(=O)[C@H](CC1CC1)NC(=O)c1ccc(F)cc1)[C@@H](CC1CC1)C(=O)N1C[C@@]2(C[C@H]1C#N)Oc1cc(F)cc(F)c1NC2=O [Compound 77]
In vitro
  CC50: > 1 µM
[1]
  CC50 at 6 days: > 10 µM
[2]; class symbols
  EC50: < 0.1 µM
[3]; class symbols
  EC50: < 0.1 µM

## CN(C(=O)c1cnn(-c2ccccc2C(F)(F)F)c1)[C@@H](CC1CC1)C(=O)N1C[C@@]2(C[C@H]1C#N)Oc1cc(F)cc(F)c1NC2=O [Compound 79]
In vitro
  CC50: > 1 µM
[1]
  CC50 at 6 days: > 10 µM
[2]; class symbols
  EC50: 0.1 to 1 µM
[3]; class symbols
  EC50: < 0.1 µM

## CN(C(=O)c1ccc(=O)[nH]n1)[C@@H](CC1CC1)C(=O)N1C[C@@]2(C[C@H]1C#N)Oc1cccnc1NC2=O [Compound 231]
[1]
  CC50 at 6 days: > 10 µM
SARS-Cov-2 3CLpro; cells given as a bound
  IC50: > 2 µM
[3]; cells given as a bound
  EC50: > 10 µM

## CN(C(=O)[C@H](CCCCN)NC(=O)C(F)(F)F)[C@@H](CC1CC1)C(=O)N1C[C@@]2(C[C@H]1C#N)Oc1cccnc1NC2=O [Compound 221]
[1]
  CC50 at 6 days: > 10 µM
SARS-Cov-2 3CLpro; class symbols
  IC50: < 0.02 µM
[3]; cells given as a bound
  EC50: > 10 µM

## C[C@H](Nc1ncnc2ccccc12)C(=O)N(C)[C@@H](CC1CC1)C(=O)N1C[C@@]2(C[C@H]1C#N)Oc1cccnc1NC2=O [Compound 230]
[1]
  CC50 at 6 days: > 10 µM
SARS-Cov-2 3CLpro; class symbols
  IC50: < 0.02 µM
[3]; class symbols
  EC50: 0.1 to 1 µM

## Cc1ccc(C(=O)N(C)[C@@H](CC2CC2)C(=O)N2C[C@@]3(C[C@H]2C#N)Oc2cccnc2NC3=O)[nH]c1=O [Compound 232]
[1]
  CC50 at 6 days: > 10 µM
SARS-Cov-2 3CLpro; class symbols
  IC50: 0.2 to 2 µM
[3]; cells given as a bound
  EC50: > 10 µM

## CN(C(=O)[C@H](CC1CC1)NC(=O)C1(F)CC1)[C@@H](CC1CC1)C(=O)N1C[C@@]2(C[C@H]1C#N)Oc1cc(F)cc(F)c1NC2=O [Compound 76]
In vitro
  CC50: > 1 µM
[1]
  CC50 at 6 days: > 10 µM
[2]; class symbols
  EC50: < 0.1 µM
[3]; class symbols
  EC50: < 0.1 µM

## CC1NC(=O)[C@]2(C[C@@H](C#N)N(C(=O)[C@H](CC3CC3)N(C)C(=O)[C@H](CC3CC3)NC(=O)C(F)(F)F)C2)Oc2ccccc21 (single isomer, unassigned) [Compound 223, (S)—N—((S)-1-((2R,5S*,5'S)-5′-cyano-5-methyl-3-oxo-4,5-dihydro-3H-spiro[benzo[f][1,4]oxazepine-2,3′-pyrrolidin]-1′-yl)-3-cyclopropyl-1-oxopropan-2-yl)-3-cyclopropyl-N-methyl-2-(2,2,2-trifluoroacetamido)propanamide]
[1]
  CC50 at 6 days: > 10 µM
SARS-Cov-2 3CLpro; class symbols
  IC50: 0.02 to 0.2 µM
[3]; class symbols
  EC50: 0.1 to 1 µM

## COc1cccc2[nH]c(C(=O)N(C)[C@@H](CC3CC3)C(=O)N3C[C@@]4(C[C@H]3C#N)Oc3cc(F)cc(F)c3NC4=O)cc12 [Compound 134]
In vitro
  CC50: > 1 µM
[2]; cells given as a bound
  EC50: > 1 µM
SARS-Cov-2 3CLpro; class symbols
  IC50: < 0.02 µM
[3]; cells given as a bound
  EC50: > 10 µM

## COC(=O)N[C@@H](CC1CC1)C(=O)N(C)[C@@H](CC1CC1)C(=O)N1C[C@@]2(C[C@H]1C#N)Oc1cc(F)cc(F)c1NC2=O [Compound 75]
In vitro
  CC50: > 1 µM
[1]
  CC50 at 6 days: > 10 µM
[2]; class symbols
  EC50: < 0.1 µM
[3]; cells given as a bound
  EC50: > 10 µM
